Key:
Type in all cases: in vivo
[1] = system: Kochia (Kochia scoparia); experiment: Test A preemergence; settings: Bassia scoparia, pre-emergence, 240 h, 0 to 100 scale where 0 is no effect and 100 is complete control, read-out: Kochia plant response rating
Summary of the method: (§1)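 Preemergence soil spray on seeded pots or post-emergence spray on 1–2 leaf plants, in loam–sand blend. Greenhouse ~10 d. Visual rating 0–100 against untreated plants.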

[2] = system: barnyardgrass (Echinochloa crus-galli); experiment: Test A preemergence; settings: Echinochloa crus-galli, pre-emergence, 240 h, 0 to 100 scale where 0 is no effect and 100 is complete control, read-out: Barnyardgrass plant response rating
Summary of the method: as §1

[3] = system: giant foxtail (Setaria faberii); experiment: Test A preemergence; settings: Setaria faberi, pre-emergence, 240 h, 0 to 100 scale where 0 is no effect and 100 is complete control, read-out: Foxtail, Giant plant response rating
Summary of the method: as §1

[4] = system: pigweed (Amaranthus retroflexus); experiment: Test A preemergence; settings: Amaranthus retroflexus, pre-emergence, 240 h, 0 to 100 scale where 0 is no effect and 100 is complete control, read-out: Pigweed plant response rating
[5] = system: ragweed (common ragweed, Ambrosia elatior); experiment: Test A preemergence; settings: Ambrosia artemisiifolia, pre-emergence, 240 h, 0 to 100 scale where 0 is no effect and 100 is complete control, read-out: Ragweed plant response rating
Summary of the method: as §1

[6] = system: ryegrass, Italian (Italian ryegrass, Lolium multiflorum); experiment: Test A preemergence; settings: Lolium multiflorum, pre-emergence, 240 h, 0 to 100 scale where 0 is no effect and 100 is complete control, read-out: Ryegrass, Italian plant response rating
Summary of the method: as §1

[7] = system: Galium (catchweed bedstraw, Galium aparine); experiment: Test A postemergence; settings: Galium, post-emergence, 240 h, Postemergence, read-out: Galium plant response rating (0 to 100 scale)
Summary of the method: as §1

[8] = system: Kochia (Kochia scoparia); experiment: Test A postemergence; settings: Bassia scoparia, post-emergence, 240 h, Postemergence, read-out: Kochia plant response rating (0 to 100 scale)
Summary of the method: as §1

[9] = system: barnyardgrass (Echinochloa crus-galli); experiment: Test A postemergence; settings: Echinochloa crus-galli, post-emergence, 240 h, Postemergence
Summary of the method: as §1

[10] = system: blackgrass (Alopecurus myosuroides); experiment: Test A postemergence; settings: Alopecurus myosuroides, post-emergence, 240 h, Postemergence, read-out: Blackgrass plant response rating (0 to 100 scale)
Summary of the method: as §1

[11] = system: corn (Zea mays); experiment: Test A postemergence; settings: Zea mays, post-emergence, 240 h, Postemergence, read-out: Corn plant response rating (0 to 100 scale)
Summary of the method: as §1

[12] = system: giant foxtail (Setaria faberii); experiment: Test A postemergence; settings: Setaria faberi, post-emergence, 240 h, Postemergence, read-out: Foxtail, Giant plant response rating (0 to 100 scale)
Summary of the method: as §1

[13] = system: pigweed (Amaranthus retroflexus); experiment: Test A postemergence; settings: Amaranthus retroflexus, post-emergence, 240 h, Postemergence, read-out: Pigweed plant response rating (0 to 100 scale)
Summary of the method: as §1

[14] = system: ragweed (common ragweed, Ambrosia elatior); experiment: Test A postemergence; settings: Ambrosia artemisiifolia, post-emergence, 240 h, Postemergence, read-out: Ragweed plant response rating (0 to 100 scale)
Summary of the method: as §1

[15] = system: ryegrass, Italian (Italian ryegrass, Lolium multiflorum); experiment: Test A postemergence; settings: Lolium multiflorum, post-emergence, 240 h, Postemergence, read-out: Ryegrass, Italian plant response rating (0 to 100 scale)
Summary of the method: as §1

[16] = system: wheat (Triticum aestivum); experiment: Test A postemergence; settings: Triticum aestivum, post-emergence, 240 h, Postemergence, read-out: Wheat plant response rating (0 to 100 scale)
Summary of the method: as §1

[17] = system: barnyardgrass (Echinochloa crus-galli); experiment: Test B flooded paddy test; settings: Echinochloa crus-galli, 250 g ai/ha, Flood; 0 to 100 scale where 0 is no effect and 100 is complete control; read-out: Barnyardgrass plant response rating
Summary of the method: (§2)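 Compound goes directly into floodwater once pots are flooded 3 cm above soil, targeting plants at two leaves; the water depth is then held for the test duration. Plants sit 13–15 d in a greenhouse and are rated visually, 100 denoting complete control.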

[18] = system: ducksalad (Heteranthera limosa); experiment: Test B flooded paddy test; settings: Heteranthera limosa, 250 g ai/ha, Flood; 0 to 100 scale where 0 is no effect and 100 is complete control; read-out: Ducksalad plant response rating
Summary of the method: as §2

[19] = system: rice (Oryra sativa); experiment: Test B flooded paddy test; settings: Oryza sativa, 250 g ai/ha, Flood; 0 to 100 scale where 0 is no effect and 100 is complete control; read-out: Rice plant response rating
Summary of the method: as §2

[20] = system: sedge, umbrella (small-flower umbrella sedge, Cyperus difformis); experiment: Test B flooded paddy test; settings: Cyperus difformis, 250 g ai/ha, Flood; 0 to 100 scale where 0 is no effect and 100 is complete control; read-out: Sedge, Umbrella plant response rating
Summary of the method: as §2

[21] = 125 g ai/ha, preemergence, visual injury rating, approximately 10 d
[22] = 125 g ai/ha, visual rating about 10 d after treatment
[23] = 31 g ai/ha, 0 is no effect, 100 is complete control

Work on `CN1C[C@H](c2ccccc2)[C@@H](C(=O)Nc2cccc(F)c2F)C1=O` [Compound 1282] yielded a pest or weed control at 31 g/ha ([1]; 31 g ai/ha, Preemergence) of 30%, a pest or weed control at 125 g/ha [1, 21] of 70% and a pest or weed control at 31 g/ha ([2]; 31 g ai/ha, Preemergence) of 100%. It also gave a pest or weed control at 125 g/ha [2, 21] of 100%, a pest or weed control at 31 g/ha ([3]; 31 g ai/ha, Preemergence) of 100% and a pest or weed control at 125 g/ha [3, 21] of 100%. For the same compound, the pest or weed control at 31 g/ha ([4]; 31 g ai/ha, Preemergence) was 60%, the pest or weed control at 125 g/ha [4, 21] was 80% and the pest or weed control at 31 g/ha ([5]; 31 g ai/ha, Preemergence) was 0%. The pest or weed control at 125 g/ha [5, 21] was 90%, the pest or weed control at 31 g/ha ([6]; 31 g ai/ha, Preemergence) was 30% and the pest or weed control at 125 g/ha [6, 21] was 70%. For the same compound, the pest or weed control at 125 g/ha [7, 22] was 70%, the pest or weed control at 31 g/ha [7, 23] was 40% and the pest or weed control at 125 g/ha [8, 22] was 60%. It also gave a pest or weed control at 31 g/ha [8, 23] of 0%, a pest or weed control at 125 g/ha ([9]; 125 g ai/ha, visual rating about 10 d after treatment, read-out: Barnyardgrass plant response rating (0 to 100 scale, 0 no effect, 100 complete control)) of 100% and a pest or weed control at 31 g/ha ([9]; 31 g ai/ha, 0 is no effect, 100 is complete control, read-out: Barnyardgrass plant response rating (0 to 100 scale)) of 90%. For the same compound, the pest or weed control at 125 g/ha [10, 22] was 0%, the pest or weed control at 31 g/ha [10, 23] was 0% and the plant injury at 125 g/ha [11, 22] was 30%. The plant injury at 31 g/ha [11, 23] was 0%, the pest or weed control at 125 g/ha [12, 22] was 80% and the pest or weed control at 31 g/ha [12, 23] was 80%. For the same compound, the pest or weed control at 125 g/ha [13, 22] was 20%, the pest or weed control at 31 g/ha [13, 23] was 0% and the pest or weed control at 125 g/ha [14, 22] was 40%. The pest or weed control at 31 g/ha [14, 23] was 0%, the pest or weed control at 125 g/ha [15, 22] was 40% and the pest or weed control at 31 g/ha [15, 23] was 0%. For the same compound, the plant injury at 125 g/ha [16, 22] was 50%, the plant injury at 31 g/ha [16, 23] was 0% and the pest or weed control at 250 g/ha [17] was 90%. It also gave a pest or weed control at 250 g/ha [18] of 100%, a pest or weed control at 250 g/ha [19] of 30% and a pest or weed control at 250 g/ha [20] of 0%.

— patent publication US12077503B2, “Substituted cyclic amides and their use as herbicides” (FMC CORPORATION, priority 2015, dated 2024)
